Data set [1] deals with Meloidogyne incognita (RKN). The data set is described as follows: Seed treatment test of root knot nematode on cucumber plants. In kind it is in vivo. The note with it: 10 mg ai/gram seed, cucumber seeds (positive control). On the procedure:
(§1) For a given concentration the chemical is dissolved in 500 ul of acetone and one gram of cucumber seed (RKN test) or soybean seed (SCN test) is added (e.g., 20 mg active ingredient in 500 ul acetone plus 1 gram of seed). The seed solutions are agitated until all seeds were thoroughly covered with the chemical solution. The acetone is then allowed to evaporate by air drying the seeds. The seeds are planted in 2-inch pots containing sandy soil and then the pots are inoculated with 1000 Meloidogyne incognita (RKN) or 1000 Heterodera glycines (SCN) eggs per pot three days after planting. Plants are rated for galling 14 days after egg inoculation for RKN or 28 days after egg inoculation for SCN.

Data set [2] relates to mice. The settings on record: cited from earlier work.
The test system of data set [3] is Heterodera glycines (SCN). The data set is described as follows: Seed treatment test of soybean cyst nematode on soybean plants. In kind it is in vivo. The settings on record: test a. On the procedure: as §1

The text below walks through data of patent US10827753B2, “Compositions and methods for controlling nematodes” (Monsanto Technology LLC, priority 2007, dated 2020).

Marks after values point to notes of the source that are not given here.

Consider abamectin, for which the “percent control (galling reduction) relative to the control blank treatment” value in data set [1] is 84%. For the same substance, in data set [2], the “oral LD50 in mice” value was 13.6 mg/kg. The “percent cyst reduction relative to control blank treatment” value in data set [3] (0.375 mg al/gram seed) is reported as −14^a percent; in data set [3] (1.5 mg al/gram seed), −24^a percent.
